Reference: paper PMC4234217 (ChemistryOpen, 2014)

Tests used:
human NTS2 [1] = target: T1, human NTS2 (Homo sapiens, UniProt O95665); assay: Radioligand binding at human NTS2 with [3H]NT; conditions: SEM
human NTS1 = human NTS1 (Homo sapiens, UniProt P30989); conditions: replacement of Tyr11 by alanine; ref [7]; cited from earlier work
human NTS2 [2] = target: T1, human NTS2; conditions: replacement of Tyr11 by alanine; ref [7]; cited from earlier work

T1 sequence (O95665 whole entry): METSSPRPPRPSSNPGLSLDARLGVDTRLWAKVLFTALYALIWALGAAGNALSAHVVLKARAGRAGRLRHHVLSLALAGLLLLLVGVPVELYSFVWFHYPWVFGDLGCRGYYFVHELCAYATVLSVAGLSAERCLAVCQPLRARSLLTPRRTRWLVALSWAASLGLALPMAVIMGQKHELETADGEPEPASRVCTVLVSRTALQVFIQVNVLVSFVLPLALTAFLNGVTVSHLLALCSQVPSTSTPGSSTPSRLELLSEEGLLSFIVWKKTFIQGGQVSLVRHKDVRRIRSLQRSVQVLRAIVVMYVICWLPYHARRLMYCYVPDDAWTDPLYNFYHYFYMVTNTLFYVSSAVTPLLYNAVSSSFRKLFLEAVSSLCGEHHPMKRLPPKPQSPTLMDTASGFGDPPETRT
Sequence of human NTS1 (P30989 whole entry): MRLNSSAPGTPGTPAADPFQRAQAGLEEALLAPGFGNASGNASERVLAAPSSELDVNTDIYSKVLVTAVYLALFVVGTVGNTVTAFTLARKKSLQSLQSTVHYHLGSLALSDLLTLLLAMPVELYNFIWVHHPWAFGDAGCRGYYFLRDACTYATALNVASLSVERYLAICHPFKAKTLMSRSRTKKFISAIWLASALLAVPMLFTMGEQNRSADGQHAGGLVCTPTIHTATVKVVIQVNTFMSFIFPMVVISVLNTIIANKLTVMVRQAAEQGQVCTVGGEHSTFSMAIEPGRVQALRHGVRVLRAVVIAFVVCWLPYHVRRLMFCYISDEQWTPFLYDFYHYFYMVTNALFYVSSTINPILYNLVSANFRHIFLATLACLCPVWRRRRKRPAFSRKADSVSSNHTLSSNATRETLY

Row | Molecule | Ki (human NTS2 [1]) [µM] | reduction of ligand affinity at NTS1 compared to NT(8–13) (human NTS1) [fold] | decrease of affinity towards NTS2 compared to NT(8–13) (human NTS2 [2]) [fold]
1 | CC[C@H](C)[C@H](NC(=O)CN(CCc1ccn2nccc2c1)C(=O)[C@@H]1CCCN1C(=O)[C@H](CCCNC(=N)N)NC(=O)[C@@H](N)CCCNC(=N)N)C(=O)N[C@@H](CC(C)C)C(=O)O [compound 3, [^11N-{5-(2-Aminoethyl)pyrazolo[1,5-a]pyridine}-Gly]NT(8–13)] | 0.52 ± 0.17 | – | –
2 | [^11Ala]NT(8–13) | – | 5400 | 70
